Assay: Pulmonary responses and safety in human subjects with mild, intermittent asthma (single-blind and double-blind parts)
Format: in vivo
Settings: for FEV1 (L) Mean % Change from Baseline (SD) / FEV1 (L) Mean (SD) / FVC Mean % Change from Baseline (SD) / FVC Mean (SD) / changes from baseline in mean FEV1, FEV1 (% predicted), FEF25%-75%, FVC / subjects with treatment-emergent AEs / FEF25%-75% Mean % Change from Baseline (SD) / FEF25%-75% Mean (SD) / FEV1 (% predicted) Mean % Change from Baseline (SD) / FEV1 (% predicted) Mean (SD): single-blind
Description: Methodology: The study consisted of 2 parts, a Single-Blind Part and a Double-Blind Part. The dose escalating, Single-Blind Part enrolled subjects with mild, intermittent asthma and consisted of 3 sequentially enrolled dosing cohorts with 8 subjects per cohort, such that Dosing Cohorts 1, 2 and 3 received binodenoson target doses of 0.5 μg/kg, 1.0 μg/kg and 1.5 μg/kg, respectively. All 8 subjects in a dosing cohort must have completed dosing at the assigned dose and a medical review of each cohort must have been acceptable before enrollment in the next cohort began. The Double-Blind Part was initiated only if the medical review of all safety data from the Single-Blind Part was acceptable. In the Double Blind Part, subjects with mild, intermittent asthma were randomly assigned in a 2:1 ratio to receive either binodenoson 1.5 μg/kg (n=40 planned) or placebo control (n=20 planned).
Both study parts were comprised of Screening, Treatment and Follow-Up Visits. The Screening Visit occurred 7 to 14 days before the Treatment Visit and consisted of a physical examination, medical history and application of inclusion and exclusion criteria. Subjects were instructed to measure peak expiratory flow (PEF) and asthma symptoms during a period of at least 7 days prior to the Treatment Visit. Subjects were to continue to meet all Screening eligibility criteria at the Treatment Visit and forced expiratory volume in 1 second (FEV1) was to remain within 80% of predicted for subjects to be eligible for dosing. All subjects enrolled in the Single-Blind Part and subjects randomized to receive binodenoson in the Double-Blind Part received 3 intravenous (IV) injections during the Treatment Visit: (1) placebo; (2) a low, challenge binodenoson dose to detect potential hypersensitivity reactions; and (3) an assigned binodenoson test dose. Subjects randomized to receive placebo in the Double Blind Part received 3 placebo injections. The Follow-Up Visit occurred 2 to 4 days following the Treatment Visit.
Eligible subjects were males or non-pregnant, nonlactating females ≧18 years of age weighing <350 pounds with a medical history of mild, intermittent asthma (as defined in the “Guidelines for the Diagnosis and Management of Asthma” prepared by the National Institutes of Health [NIH]) within 6 months of Screening.
Subjects were not eligible for the study if they had resting sitting systolic blood pressure (SBP)<100 or >140 mmHg, diastolic blood pressure (DBP)<60 or >90 mmHg, pulse rate >95 beats per minute (bpm), or a lower limit FEV1 at rest of <80% of the predicted value at Screening.
Dose and Mode of Administration: A stock solution of binodenoson (25 μg/mL) was administered as a bolus injection over 30 seconds (0.1 μg/kg=0.004 mL/kg of stock solution, 0.5 μg/kg=0.02 mL/kg of stock solution, 1.0 μg/kg=0.04 mL/kg of stock solution and 1.5 μg/kg=0.06 mL/kg of stock solution).
Duration of Treatment: Each subject received three 30-second bolus IV injections separated by ≧90 minutes in both the Single Blind and Double-Blind Parts of the study.
Criteria for Evaluation: The primary safety endpoint was clinically significant bronchoconstriction, defined as a ≧20% decrease in FEV1 from the predrug baseline following binodenoson administration. Other safety assessments included need for rescue medication, regular measurements of pulmonary function (FEV1 [% predicted], forced vital capacity [FVC] and forced expiratory flow during the middle half of the FVC [FEF25%-75%]), vital signs, pulse oximetry, physical examination findings, electrocardiogram (ECG) results, clinical laboratory results and adverse events.
Statistical Methods: All data collected in the study were summarized by treatment (placebo; 0.1 μg/kg binodenoson challenge; or 0.5, 1.0, or 1.5 μg/kg binodenoson) and study Part (Single-Blind or Double-Blind with univariate summaries). Continuous variables were summarized with descriptive statistics (n, mean, median, standard deviation [SD] and minimum and maximum). […]

[1] = Cohort 3, second injection 0.1 μg/kg iv bolus, 90 minutes
[2] = third injection 0.5 μg/kg iv bolus, 5 min
[3] = third injection 0.5 μg/kg iv bolus, 15 min
[4] = third injection 0.5 μg/kg iv bolus, 45 min
[5] = third injection 0.5 μg/kg iv bolus, 90 min
[6] = third injection 1.0 μg/kg iv bolus, 5 min
[7] = third injection 1.0 μg/kg iv bolus, 15 min
[8] = third injection 1.0 μg/kg iv bolus, 45 min
[9] = third injection 1.0 μg/kg iv bolus, 90 min
[10] = third injection 1.5 μg/kg iv bolus, 5 min
[11] = third injection 1.5 μg/kg iv bolus, 15 min
[12] = third injection 1.5 μg/kg iv bolus, 45 min
[13] = third injection 1.5 μg/kg iv bolus, 90 min

## Nc1nc(N/N=C/C2CCCCC2)nc2c1ncn2[C@@H]1O[C@H](CO)[C@@H](O)[C@H]1O (stereo in doubt) [Binodenoson, 2-{2-[(Cyclohexyl)methylene]hydrazino}adenosine]
[1]
  FEV1 (L) Mean % Change from Baseline (SD): 0.901 (2.441) %
  FEV1 (L) Mean (SD): 3.343 (0.657) L
  FVC Mean % Change from Baseline (SD): −0.163 (0.894) %
  FVC Mean (SD): 4.334 (0.850)
After binodenoson 0.1 μg/kg injection
  changes from baseline in mean FEV1, FEV1 (% predicted), FEF25%-75%, FVC: No clinically significant changes from baseline
Binodenoson 0.1 μg/kg
  subjects with treatment-emergent AEs: No subjects experienced treatment-emergent AEs
Third injection 0.5 μg/kg
  subjects with treatment-emergent AEs: 25%
[2]
  FEF25%-75% Mean % Change from Baseline (SD): −3.549 (6.717) %
  FEF25%-75% Mean (SD): 3.111 (0.915)
  FEV1 (% predicted) Mean % Change from Baseline (SD): −2.3 (3.4) %
  FEV1 (% predicted) Mean (SD): 92.6 (12.5) % predicted
  FEV1 (L) Mean % Change from Baseline (SD): −2.327 (3.977) %
  FEV1 (L) Mean (SD): 3.995 (0.820) L
  FVC Mean % Change from Baseline (SD): −1.162 (2.708) %
  FVC Mean (SD): 5.581 (1.151)
[3]
  FEF25%-75% Mean % Change from Baseline (SD): −1.773 (3.375) %
  FEF25%-75% Mean (SD): 3.169 (0.885)
  FEV1 (% predicted) Mean % Change from Baseline (SD): −0.9 (2.1) %
  FEV1 (% predicted) Mean (SD): 94.0 (11.9) % predicted
  FEV1 (L) Mean % Change from Baseline (SD): −0.967 (2.171) %
  FEV1 (L) Mean (SD): 4.049 (0.800) L
  FVC Mean % Change from Baseline (SD): −0.033 (1.645) %
  FVC Mean (SD): 5.640 (1.130)
[4]
  FEF25%-75% Mean % Change from Baseline (SD): −2.338 (5.471) %
  FEF25%-75% Mean (SD): 3.158 (0.899)
  FEV1 (% predicted) Mean % Change from Baseline (SD): −1.5 (2.1) %
  FEV1 (% predicted) Mean (SD): 93.4 (11.7) % predicted
  FEV1 (L) Mean % Change from Baseline (SD): −1.455 (2.494) %
  FEV1 (L) Mean (SD): 4.034 (0.821) L
  FVC Mean % Change from Baseline (SD): −0.838 (3.371) %
  FVC Mean (SD): 5.591 (1.122)
[5]
  FEF25%-75% Mean % Change from Baseline (SD): −3.732 (9.304) %
  FEF25%-75% Mean (SD): 3.106 (0.892)
  FEV1 (% predicted) Mean % Change from Baseline (SD): −2.0 (3.4) %
  FEV1 (% predicted) Mean (SD): 92.9 (12.5) % predicted
  FEV1 (L) Mean % Change from Baseline (SD): −2.365 (3.864) %
  FEV1 (L) Mean (SD): 4.000 (0.840) L
  FVC Mean % Change from Baseline (SD): −0.963 (3.579) %
  FVC Mean (SD): 5.600 (1.196)
Third injection 1.0 μg/kg
  subjects with treatment-emergent AEs: 50%
[6]
  FEF25%-75% Mean % Change from Baseline (SD): 2.938 (17.701) %
  FEF25%-75% Mean (SD): 3.571 (1.546)
  FEV1 (% predicted) Mean % Change from Baseline (SD): −0.1 (5.7) %
  FEV1 (% predicted) Mean (SD): 93.5 (11.5) % predicted
  FEV1 (L) Mean % Change from Baseline (SD): −0.071 (5.830) %
  FEV1 (L) Mean (SD): 3.889 (0.883) L
  FVC Mean % Change from Baseline (SD): 0.316 (3.947) %
  FVC Mean (SD): 5.106 (1.192)
[7]
  FEF25%-75% Mean % Change from Baseline (SD): 1.896 (7.770) %
  FEF25%-75% Mean (SD): 3.534 (1.364)
  FEV1 (% predicted) Mean % Change from Baseline (SD): 0.0 (3.8) %
  FEV1 (% predicted) Mean (SD): 93.6 (13.0) % predicted
  FEV1 (L) Mean % Change from Baseline (SD): 0.113 (3.892) %
  FEV1 (L) Mean (SD): 3.899 (0.884) L
  FVC Mean % Change from Baseline (SD): −0.138 (3.728) %
  FVC Mean (SD): 5.078 (1.156)
[8]
  FEF25%-75% Mean % Change from Baseline (SD): 7.715 (11.942) %
  FEF25%-75% Mean (SD): 3.759 (1.554)
  FEV1 (% predicted) Mean % Change from Baseline (SD): 0.6 (6.3) %
  FEV1 (% predicted) Mean (SD): 94.3 (16.4) % predicted
  FEV1 (L) Mean % Change from Baseline (SD): 0.344 (6.156) %
  FEV1 (L) Mean (SD): 3.926 (1.012) L
  FVC Mean % Change from Baseline (SD): −1.792 (6.201) %
  FVC Mean (SD): 5.020 (1.300)
[9]
  FEF25%-75% Mean % Change from Baseline (SD): 9.498 (11.643) %
  FEF25%-75% Mean (SD): 3.830 (1.595)
  FEV1 (% predicted) Mean % Change from Baseline (SD): 2.6 (4.5) %
  FEV1 (% predicted) Mean (SD): 96.3 (15.9) % predicted
  FEV1 (L) Mean % Change from Baseline (SD): 2.406 (4.249) %
  FEV1 (L) Mean (SD): 4.005 (0.983) L
  FVC Mean % Change from Baseline (SD): −0.051 (2.348) %
  FVC Mean (SD): 5.105 (1.262)
Third injection 1.5 μg/kg
  subjects with treatment-emergent AEs: 75%
[10]
  FEF25%-75% Mean % Change from Baseline (SD): 2.411 (12.016) %
  FEF25%-75% Mean (SD): 2.880 (0.584)
  FEV1 (% predicted) Mean % Change from Baseline (SD): 0.4 (2.6) %
  FEV1 (% predicted) Mean (SD): 91.6 (8.1) % predicted
  FEV1 (L) Mean % Change from Baseline (SD): 0.336 (2.702) %
  FEV1 (L) Mean (SD): 3.344 (0.610) L
  FVC Mean % Change from Baseline (SD): 0.031 (2.871) %
  FVC Mean (SD): 4.334 (0.845)
[11]
  FEF25%-75% Mean % Change from Baseline (SD): 2.110 (5.540) %
  FEF25%-75% Mean (SD): 2.890 (0.645)
  FEV1 (% predicted) Mean % Change from Baseline (SD): −0.5 (2.0) %
  FEV1 (% predicted) Mean (SD): 90.8 (7.8) % predicted
  FEV1 (L) Mean % Change from Baseline (SD): −0.380 (2.306) %
  FEV1 (L) Mean (SD): 3.330 (0.666) L
  FVC Mean % Change from Baseline (SD): −1.335 (2.366) %
  FVC Mean (SD): 4.281 (0.882)
[12]
  FEF25%-75% Mean % Change from Baseline (SD): −1.475 (6.450) %
  FEF25%-75% Mean (SD): 2.803 (0.705)
  FEV1 (% predicted) Mean % Change from Baseline (SD): −0.4 (2.3) %
  FEV1 (% predicted) Mean (SD): 90.9 (7.9) % predicted
  FEV1 (L) Mean % Change from Baseline (SD): −0.439 (2.820) %
  FEV1 (L) Mean (SD): 3.331 (0.682) L
  FVC Mean % Change from Baseline (SD): −0.179 (2.938) %
  FVC Mean (SD): 4.326 (0.872)
[13]
  FEF25%-75% Mean % Change from Baseline (SD): 0.469 (2.514) %
  FEF25%-75% Mean (SD): 2.851 (0.654)
  FEV1 (% predicted) Mean % Change from Baseline (SD): 0.6 (1.3) %
  FEV1 (% predicted) Mean (SD): 91.9 (7.4) % predicted
  FEV1 (L) Mean % Change from Baseline (SD): 0.617 (1.762) %
  FEV1 (L) Mean (SD): 3.365 (0.680) L
  FVC Mean % Change from Baseline (SD): 0.537 (2.460) %
  FVC Mean (SD): 4.358 (0.878)
Third injection (0.5, 1.0, 1.5 μg/kg)
  changes from baseline in mean FEV1, FEV1 (% predicted), FEF25%-75%, FVC: no clinically significant changes from baseline
Whole study
  deaths, serious AEs, premature discontinuations due to AEs: no deaths, serious AEs, or premature discontinuations due to AEs
  laboratory evaluations, ECG, pulse oximetry: No clinically meaningful results

Reference: US20110002843A1, “METHOD OF DETECTING MYOCARDIAL DYSFUNCTION IN PATIENTS HAVING A HISTORY OF ASTHMA OR BRONCHOSPASM” (priority 2005, published 2011)
